Columns and labels:
[1] = tested on: guinea pigs; settings: cited from earlier work
[2] = in vivo; cited from earlier work
[3] = target: MTP (Homo sapiens, UniProt P55157); settings: cited from earlier work
[4] = tested on: hepatic mRNA of ER stress, inflammation and lipid metabolism genes; assay: Hepatic mRNA quantification (qPCR, XBP-1 splicing) in treated mice; format: in vivo; settings: liver
Excerpt: FIGS. 6a and 6b. Liver samples from FIG. 16 were used to isolate total mRNA and to quantify expression of different candidate genes. Statistical analyses were as described in FIGS. 16-17.
FIGS. 9a and 9b. C57B/6J mice were fed a western diet for 8 weeks and then treated with MTP inhibitor and other indicated compounds for 8 days as described in FIG. 16. Liver samples were used to isolate mRNA and to quantify mRNA levels with different candidate genes. Stars on MTPi group represent comparison with the control group.
FIG. 16. Age matched wildtype C57/BL6J animals chow fed animals were treated with DMSO (control) or MTP inhibitor (MTPi) for one week. Age matched wildtype C57/BL6J were fed WD for one month and were administered MTPi, Lovastatin, (Lova), Pioglitazone (Pio) or 4-phenylbutyric acid (PBA) every day for one week. All drugs were administered by oral gavage. Animals were sacrificed on day 7 and livers were harvested. mRNA was extracted and subjected to qPCR analysis. * represent comparison DMSO control; # represent comparisons to WD control; @ represent comparisons to WD MTP inhibitor treated animals.
mRNA quantifications and primers used: Total RNA from tissues and cells were isolated using TriZol™ (Invitrogen). The purity and integrity of RNA were assessed by the A260/A280 ratio and 1% agarose gel electrophoresis, respectively. Only the RNAs with ratios more than 1.7 were used for cDNA synthesis. The first strand cDNA was synthesized using Omniscript RT (Qiagen) kit. Briefly, 2 μg of total RNA, 1 μM random primers (Invitrogen), 0.5 mM dNTP solution, and 0.5 U/μl Omniscript Reverse Transcriptase were incubated at 37° C. for 1 h in 20 μl of RT buffer and the reaction was terminated by incubating at 95° C. for 5 minutes. Each reaction of quantitative RT-PCR was carried out in a volume of 20 μl consisting of 5 μl cDNA sample (1:100 dilution of the first strand cDNA sample) and 15 μl of PCR master mix solution containing 1×PCR reaction buffer, 6 mM MgCl2, 200 nM primer pair, 0.025 U/μl HotStar Gold™ DNA polymerase, 200 μM dNTP solution, and 0.3 μl SYBR Green I solution (gPCR™ Core Kit for SYBR Green I, Eurogentec). The PCR was carried out by incubating the reaction mixture first for 10 minute at 95° C. followed by 40 cycles of 15 sec incubations at 95° C. and 1 min at 60° C. in the ABI 7000 SDS PCR machine. The data were analyzed using ΔΔCT method according to manufacturer's instruction and presented as arbitrary units. The primers used in this study were designed with the PrimerExpress 3.0 software (Applied Biosystems, CA) and are presented as Table 1.

[5] = tested on: C57Bl/6J mice fed either a chow or western diet; assay: MTP inhibitor BMS-212122-01 with or without lovastatin, pioglitazone or PBA in chow or western diet fed C57Bl/6J mice; format: in vivo; settings: WD one month
Method: FIG. 13. Age matched wildtype C57/Bl6J animals chow fed animals were treated with DMSO (control) or MTP inhibitor (MTPi) for one week. […] All drugs were administered by oral gavage. Animals were sacrificed on day 7 and plasma and livers were harvested and analyzed. * represent comparison to DMSO control; # represent comparisons to WD control; @ represent comparisons to WD MTP inhibitor treatment.
FIG. 18. Age matched wildtype C57/BL6J were fed WD for one month and were administered MTPi, or 4-phenylbutyric acid (PBA) everyday for one week. All drugs were administered by oral gavage. Animals were sacrificed on day 7 and livers were harvested. * represent comparison DMSO control; # represent comparisons to HF MTP inhibitor treated animals.
(§1) C57BL/6J Black 6 mice (stock number 000664) were obtained from Jackson Laboratory and used for chow fed and western diet fed experiments. MTP inhibitor (BMS […]) (1 mg/kg/day), Lovastatin, Pioglitazone (Toronto Research Chemicals P471000) (25 mg/kg/day) and 4-phenylbutyric acid (Calbiochem 820986) (1 g/kg/day) were administered by oral gavage. Chow fed animals were treated for one week with either DMSO or MTP inhibitor. Western diet fed animals were fed DMSO, MTP inhibitor, Pioglitazone, MTP inhibitor+Pioglitazone, Lovastatin, MTP inhibitor+Lovastatin, 4-phenylbutyric acid, and MTP inhibitor+4-phenylbutyric acid. Chow fed animals were also injected with either PBS or Tunicamycin and animals were sacrificed at 4, 8, 12 and 24 hours.
All animals were kept in 07:00-19:00 h lighting schedule. […] Food was withdrawn 16 h before the sacrifice of the mice. On the day of the experiment, mice were anesthetized and blood was collected from the heart. Liver was collected, washed in ice-cold PBS, cut into small pieces and used for lipid extraction, histological staining, to measure different protein activities/quantities and for mRNA analysis. Lipids were extracted from the tissue homogenates following the Bligh and Dyer method. Triglyceride (Infinity TM Triglyceride, TR22421) and total cholesterol (Infinity TM Cholesterol, TR13421) levels in the tissues were determined using commercial kits (Thermo Scientific). Free cholesterol and free fatty acid levels were measured using kits from Wako Chemicals (Germany). Esterified cholesterol was calculated by subtracting the free cholesterol from the total cholesterol.
We next studied the effects of chemical inhibition of MTP in C57Bl/6J mice fed either a chow or western diet (WD) for 5 weeks. Chow fed animals were orally gavaged with either DMSO or MTP inhibitor BMS-212122-01 (MTPi; 1 mg/kg/day) for one week. WD fed animals were treated with DMSO, MTP inhibitor with or without lovastatin (50 mg/kg/day) or pioglitazone (25 mg/kg/day) daily by oral gavage for one week.

[6] = target: T1, MTP (Mus musculus, UniProt O08601); assay: Determination of MTP activity in tissues (liver homogenates of treated mice); format: in vivo; settings: chow fed C57/BL6J, IP tunicamycin, 4-24 hours
T1 construct: small pieces (0.1 g) of liver and ˜1-cm segments of proximal small intestine were homogenized; from tissue; host or cells: mouse liver (C57BL/6J; Reversa mice in some experiments); supernatant of ultracentrifuged homogenate
T1 sequence (O08601 22-894): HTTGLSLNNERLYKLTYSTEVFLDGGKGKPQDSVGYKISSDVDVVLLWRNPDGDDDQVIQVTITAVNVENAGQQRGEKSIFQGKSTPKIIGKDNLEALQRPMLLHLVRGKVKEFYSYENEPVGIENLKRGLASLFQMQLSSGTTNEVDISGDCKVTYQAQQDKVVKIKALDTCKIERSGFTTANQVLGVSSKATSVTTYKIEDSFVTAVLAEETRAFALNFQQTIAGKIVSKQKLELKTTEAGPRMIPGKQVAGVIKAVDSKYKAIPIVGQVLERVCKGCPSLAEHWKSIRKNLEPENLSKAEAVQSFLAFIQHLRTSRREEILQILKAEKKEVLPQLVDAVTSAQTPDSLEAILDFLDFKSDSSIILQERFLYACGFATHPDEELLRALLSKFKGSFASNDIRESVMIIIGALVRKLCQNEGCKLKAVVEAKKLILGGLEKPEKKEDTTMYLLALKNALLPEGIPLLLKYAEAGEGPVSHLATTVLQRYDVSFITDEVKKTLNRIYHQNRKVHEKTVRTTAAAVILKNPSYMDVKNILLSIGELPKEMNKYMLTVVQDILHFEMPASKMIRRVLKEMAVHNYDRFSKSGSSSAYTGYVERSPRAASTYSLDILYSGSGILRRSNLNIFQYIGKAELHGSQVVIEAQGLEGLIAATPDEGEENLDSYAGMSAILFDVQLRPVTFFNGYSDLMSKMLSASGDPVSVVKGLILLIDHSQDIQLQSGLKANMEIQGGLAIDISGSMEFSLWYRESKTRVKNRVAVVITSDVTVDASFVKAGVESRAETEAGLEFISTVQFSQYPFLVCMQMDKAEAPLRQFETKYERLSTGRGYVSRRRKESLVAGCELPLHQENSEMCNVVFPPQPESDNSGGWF
T1 sequence (P09103 21-509 partner limits assumed): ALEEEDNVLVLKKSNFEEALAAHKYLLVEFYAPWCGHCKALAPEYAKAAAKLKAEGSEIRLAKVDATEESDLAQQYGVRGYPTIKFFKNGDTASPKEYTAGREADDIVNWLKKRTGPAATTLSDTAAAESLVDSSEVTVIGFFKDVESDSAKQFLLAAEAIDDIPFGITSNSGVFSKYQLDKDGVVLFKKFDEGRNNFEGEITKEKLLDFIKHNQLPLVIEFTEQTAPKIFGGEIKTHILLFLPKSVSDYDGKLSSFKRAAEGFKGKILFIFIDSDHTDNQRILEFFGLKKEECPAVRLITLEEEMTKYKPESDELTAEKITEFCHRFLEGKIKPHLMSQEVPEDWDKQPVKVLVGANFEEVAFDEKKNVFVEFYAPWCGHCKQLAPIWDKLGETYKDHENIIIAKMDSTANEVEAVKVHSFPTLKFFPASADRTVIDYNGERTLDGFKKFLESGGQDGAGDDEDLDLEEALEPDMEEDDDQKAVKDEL
Method: After extensive washes with ice-cold PBS, small pieces (0.1 g) of liver and ˜1-cm segments of proximal small intestine were homogenized with 1 ml of ice-cold 1 mM Tris-HCl, pH 7.6, 1 mM EGTA, and 1 mM MgCl2 buffer in a glass homogenizer. The homogenates were centrifuged (SW55 Ti rotor, 50,000 rpm, 10° C., 1 h), and supernatants were used for MTP assay as described before (41; 42) using a kit (Chylos, Inc.).

[7] = tested on: C57Bl/6J mice; assay: ER stress induction by tunicamycin in mice: plasma AST/ALT and lipids; format: in vivo
Method: FIG. 10. Effect of tunicamycin on plasma ALT/AST levels. W iid type mice were injected intraperitoneally with 1 mg/kg tunicamycin. Plasma were collected after 48 h and used to measure enzyme activities.
FIG. 17. Age matched wildtype C57/BL6J animals chow fed animals were injected via IP with either PBS or Tunicamycin. Animals were sacrificed at 4, 8, 12 and 24 hours. Plasma and livers were collected and mRNA extracted from liver samples.
To determine whether ER stress itself would increase plasma AST/ALT, C57Bl/6J mice were injected with tunicamycin (1 mg/kg) as described before. Plasma AST/ALT levels were measured after 36 h (FIG. 10). […] We will be measuring cellular lipid to determine whether tunicamycin affects hepatic lipid levels as well as mRNA and protein levels of different candidate genes involved in ER stress pathway.
as §1

[8] = chow fed C57/BL6J, IP, 4-24 hours

MTP (Homo sapiens, UniProt P55157), sequence (P55157 19-894, species assumed): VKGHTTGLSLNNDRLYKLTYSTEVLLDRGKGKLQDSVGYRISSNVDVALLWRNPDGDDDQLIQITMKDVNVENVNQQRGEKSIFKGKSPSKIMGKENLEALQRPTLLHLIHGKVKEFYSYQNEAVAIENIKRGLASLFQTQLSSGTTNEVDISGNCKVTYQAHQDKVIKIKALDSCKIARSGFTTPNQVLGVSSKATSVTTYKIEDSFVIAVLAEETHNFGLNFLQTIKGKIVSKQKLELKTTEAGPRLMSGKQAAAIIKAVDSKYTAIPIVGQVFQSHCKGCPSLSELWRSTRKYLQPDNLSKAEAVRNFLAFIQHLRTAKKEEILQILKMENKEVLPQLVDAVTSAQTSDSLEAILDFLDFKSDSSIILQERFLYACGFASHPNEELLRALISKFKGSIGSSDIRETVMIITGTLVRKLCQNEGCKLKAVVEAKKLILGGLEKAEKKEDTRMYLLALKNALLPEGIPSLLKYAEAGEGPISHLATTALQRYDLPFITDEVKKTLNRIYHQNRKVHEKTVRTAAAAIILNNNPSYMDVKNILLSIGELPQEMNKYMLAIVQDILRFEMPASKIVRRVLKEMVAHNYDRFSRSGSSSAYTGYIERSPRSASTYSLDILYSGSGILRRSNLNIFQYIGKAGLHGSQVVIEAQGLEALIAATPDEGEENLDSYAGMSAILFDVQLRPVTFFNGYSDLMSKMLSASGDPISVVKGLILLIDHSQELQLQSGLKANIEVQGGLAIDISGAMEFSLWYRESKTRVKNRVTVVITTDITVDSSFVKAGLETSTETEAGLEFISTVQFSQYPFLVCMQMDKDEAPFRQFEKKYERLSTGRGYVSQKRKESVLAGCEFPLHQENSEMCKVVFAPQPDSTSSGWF
MTP (Homo sapiens, UniProt P55157), sequence (P07237 18-508 partner, species assumed): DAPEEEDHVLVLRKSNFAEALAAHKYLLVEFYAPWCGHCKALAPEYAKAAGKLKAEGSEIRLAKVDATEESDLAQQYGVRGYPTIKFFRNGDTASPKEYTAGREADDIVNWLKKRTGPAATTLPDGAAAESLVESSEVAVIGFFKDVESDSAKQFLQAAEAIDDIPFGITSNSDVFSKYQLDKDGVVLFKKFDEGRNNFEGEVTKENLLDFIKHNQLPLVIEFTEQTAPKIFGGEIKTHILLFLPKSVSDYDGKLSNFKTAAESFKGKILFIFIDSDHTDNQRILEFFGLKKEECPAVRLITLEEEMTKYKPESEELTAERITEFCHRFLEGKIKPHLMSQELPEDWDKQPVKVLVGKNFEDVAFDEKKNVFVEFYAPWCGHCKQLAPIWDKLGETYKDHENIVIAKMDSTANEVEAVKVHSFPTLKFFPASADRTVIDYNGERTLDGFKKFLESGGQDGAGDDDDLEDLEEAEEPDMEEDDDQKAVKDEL

CCOC(=O)C(COC(=O)Cc1ccc(NC(=O)c2ccccc2-c2ccc(C(F)(F)F)cc2)c(C(=O)N(C)C)c1)(C(=O)OCC)c1ccccc1 [JTT-130]
hepatic triglyceride [1]: without increasing
plasma triglyceride and LDL cholesterol [1]: lower

COc1cccc(C(=O)Nc2ccc3c(c2)CCN(C(=O)Oc2ccccc2)C3)c1-c1ccc(C(F)(F)F)cc1 [SLx-4090]
plasma lipids [2]: lower

O=C1c2c(O)cc(O)cc2OC(c2ccc(O)c(O)c2)C1O (stereo not shown) [Taxifolin]
cellular lipids [3]: without increasing
triglyceride synthesis and MTP activity [3]: inhibits

O=C(O)CCCc1ccccc1 [PBA, 4-phenylbutyric acid]
mRNA levels of ER stress markers vs MTPi treated animals ([4]; PBA with MTPi): significantly lower
hepatic triglycerides and free cholesterol (hepatic lipids) ([5]; MTPi ± PBA one week): did not reduce
MTP activity, hepatic and plasma lipids ([5]; PBA 1 g/kg/day alone or co-administered with MTP inhibitor, one week): no effect
rises in plasma AST/ALT after MTP inhibition ([5]; PBA 1 g/kg/day with MTP inhibitor, one week): spared increases

tunicamycin
hepatic MTP activity [6]: no effect
XBP-1 splicing assay ([4]; tunicamycin IP): revealed the spliced form of XBP-1
mRNA expression of ER stress markers Bip, Ire1α and CHOP ([4]; tunicamycin IP time course): elevations
Plasma AST/ALT levels ([7]; 1 mg/kg injected, measured after 36 h): significantly enhanced
plasma AST/ALT vs PBS injected animals ([7]; 24 hours after injection): still significantly elevated
increase of plasma AST/ALT ([7]; acute induction of ER stress): 2.5 fold
time of peak plasma AST/ALT levels after injection ([7]; chow fed C57/BL6J, IP): 8 h
hepatic lipids [7, 8]: increased
plasma cholesterol and triglycerides [7, 8]: lowered
plasma transaminases ([7]; chow fed C57/BL6J, IP, vs PBS): higher
